For two molecules, melting point results are on record in patent US20140206633A1, “PROCESS FOR THE PREPARATION OF ISOXAZOLINE DERIVATIVES” (SYNGENTA CROP PROTECTION LLC, priority 2010, published 2014).

Each structure is given as a SMILES string.

By melting point is commonly meant the temperature of the solid-liquid transition.

For the molecule `C=CC1C[N+]2(Cc3c4ccccc4cc4ccccc34)CCC1C[C@H]2[C@H](O)c1ccnc2ccc(OC)cc12.[Cl-]` (some centres unmarked), the melting point was 150 to 152 °C (dec.). In the case of `C=CC1C[N+]2(Cc3c(F)c(F)c(F)c(F)c3F)CCC1C[C@H]2[C@H](O)c1ccnc2ccc(OC)cc12.[Br-]` (some centres unmarked) it was 162 to 165 °C (dec.).
